Patent US11851413B1, “1,3-benzothiazol-2-yl-N'-[(naphthalene-1-carbonyl)oxy]ethanimidamide as an antitumor and antimicrobial compound” (KING FAISAL UNIVERSITY, priority 2023, dated 2023)

Legend:
[1] = tested on: human prostate cancer cells (PC3); assay: Cytotoxicity by SRB assay, PC3 cells; type: cell-based; conditions: 0.01 μM to 100 μM, 72 h
Description: (§1) The human prostate cancer cells (PC3) and human osteosarcoma cells (MG-63) were obtained from Nawah Scientific Inc. (Mokatam, Cairo, Egypt) and cultured in DMEM (Dulbecco's modified eagle's medium), Gibco, USA, supplemented with fetal bovine serum (FBS) at a concentration of 10% and 100 U/mL of penicillin and streptomycin (PS). The Cells were incubated at 37° C. in a humidified environment that contained 5% CO2. Cells were seeded in 96-well plates as aliquots of 100 μL cell suspension and incubated in a complete media for 24 h. afterward, cells were treated with N′-(1-naphthoyloxy)-2-(benzo[d]thiazol-2-yl)acetimidamide at diverse concentrations ranging from 0.01 μM to 100 μM for 72 h. Then, cells were fixed at 4° C. for one hour with 150 μL of 10% trichloroacetic acid (TCA). After washing the cells five times with distilled water, 70 μL of sulforhodamine (SRB) solution (0.4% w/v) was added and incubated for 10 min at room temperature in a dark place. […] Then, 150 μL of Tris pH 10.5 (10 mM) was added, and the absorbance was measured at 540 nm using a BMG LABTECH®-FLUOstar Omega microplate reader (Ortenberg, Germany). Half maximal inhibitory concentrations (IC50) values were calculated for each experiment using GraphPad Prism 6 software. […] The inhibition was calculated using the following equation: Inhibition%=100−Average Viability

[2] = tested on: human osteosarcoma cells (MG-63); assay: Cytotoxicity by SRB assay, MG-63 cells; type: cell-based; conditions: 0.01 μM to 100 μM, 72 h
Description: as §1

## N/C(Cc1nc2ccccc2s1)=N\OC(=O)c1cccc2ccccc12 [1,3-benzothiazol-2-yl-N′-[(naphthalene-1-carbonyl)oxy]ethanimidamide]
[1]
  antiproliferative activity against prostate cancer cells (PC3): excellent antiproliferative activities
other
  melting point: 191 to 193 °C
[2]
  antiproliferative activity against osteosarcoma (MG-63) cells: excellent antiproliferative activities
